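Five compound concentrations were applied to cells in 96-well plates for 48 hours; endpoints were derived by simple linear interpolation of the resulting dose-response curve. GI50: concentration for 50% inhibition of growth. TGI is the concentration that stops growth completely.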
Key:
Test in all cases: NCI tumour cell line growth inhibition, 48 h
DMS 114 small cell lung = test system: DMS 114 small cell lung
HT29 colon = test system: HT29 colon
KM20L2 colon = test system: KM20L2 colon
NCI-H226 lung = test system: NCI-H226 lung
SF-268 CNS = test system: SF-268 CNS
SF-295 CNS = test system: SF-295 CNS
SK-MEL-2 melanoma = test system: SK-MEL-2 melanoma
TK-10 renal = test system: TK-10 renal
U251 CNS = test system: U251 CNS
UO-31 renal = test system: UO-31 renal
SNB-78 CNS = test system: SNB-78 CNS

Compound	TGI (DMS 114 small cell lung) [µM]	TGI (HT29 colon) [µM]	TGI (KM20L2 colon) [µM]	TGI (NCI-H226 lung) [µM]	TGI (SF-268 CNS) [µM]	TGI (SF-295 CNS) [µM]	TGI (SK-MEL-2 melanoma) [µM]	TGI (TK-10 renal) [µM]	TGI (U251 CNS) [µM]	TGI (UO-31 renal) [µM]	GI50 (HT29 colon) [µM]	GI50 (NCI-H226 lung) [µM]	GI50 (SF-268 CNS) [µM]	GI50 (SF-295 CNS) [µM]	GI50 (SK-MEL-2 melanoma) [µM]	GI50 (TK-10 renal) [µM]	GI50 (U251 CNS) [µM]	GI50 (UO-31 renal) [µM]	TGI (SNB-78 CNS) [µM]
Cc1[nH]c2cc([N+](=O)[O-])ccc2c1[N+](=O)[O-]	33.6	97	> 100	71.8	> 100	48.8	31	75.8	71.2	36.2	–	–	–	–	–	–	–	–	–
Cc1ccc(S(=O)(=O)C2CC2(Cl)Cl)cc1 (stereo not drawn)	39.8	37.5	> 100	> 100	> 100	> 100	> 100	> 100	> 100	> 100	–	–	–	–	–	–	–	–	–
CC(=O)C1C(=O)C(=O)N(CCN2C(=O)C(=O)C(C(C)=O)C2=O)C1=O (stereo not drawn)	> 100	> 100	> 100	> 100	> 100	> 100	> 100	> 100	> 100	> 100	–	–	–	–	–	–	–	–	–
CCc1c(C)c2cc(-n3c(-c4ccc(OC)cc4)csc3=N)c(O)c(C)c2oc1=O	–	6.12	–	9.73	10.3	10.3	5.84	8.35	6.09	3.65	1.74	2.13	2.1	1.52	1.66	4.36	1.77	0.687	–
COc1ccc(-c2[nH]ncc2Nc2cc(OC)c(OC)c(OC)c2)cc1	–	> 100	–	> 100	> 100	> 21.1	> 100	96.9	> 100	> 100	0.482	29.1	6.83	1.31	10.3	> 32	2.21	3.29	–
Cc1ccc(Nc2nc(-c3ccc(-c4ccc([N+](=O)[O-])cc4)o3)cs2)cc1	–	> 100	> 100	> 100	> 100	> 100	> 100	> 100	> 100	> 100	–	–	–	–	–	–	–	–	> 100
CC(=O)c1c(C)c2cnc(Nc3ccc(N4CCNCC4)cn3)nc2n(C2CCCC2)c1=O	–	16.8	–	22.4	25.3	28.9	25.3	16.3	20.3	20.1	0.969	6.07	10.7	12.9	11.5	0.533	4.25	2.6	–
COc1ccc2c(c1)/C(=N/OC(C)=O)c1c-2c(OC)nc2ccccc12	–	> 100	–	> 100	> 100	> 100	> 100	> 100	> 100	> 100	> 100	> 100	> 100	> 100	> 100	79.1	> 100	> 100	–
CC1=C[C@@H]2c3c(c(O)c(O)c4oc5cc(O)cc(O)c5c(=O)c34)[C@@H](c3cc(O)c(O)c4oc5cc(O)cc(O)c5c(=O)c34)[C@@H]2C(C)(C)C1	–	14.8	–	28.4	16.1	11.3	21	19.2	13.9	16.3	3.86	3.82	3.25	2.87	5.99	5.85	2.34	3.83	–
Cc1ccc(-c2nc3sc(C)cn3c2/C=C2\C(=O)Nc3ccc(Cl)cc32)cc1	–	41.4	–	> 100	35.5	32.9	28.6	24.7	15.3	> 100	20.3	22.9	17.8	8.2	12.1	9.28	3.92	28.1	–
CCC(=O)Nc1nnc(Cc2ccc(OC)c(OC)c2)s1	–	> 100	–	> 100	> 100	> 100	> 100	> 100	> 100	> 100	> 100	> 100	> 100	> 100	> 100	> 100	> 100	> 100	–
Cn1c(I)c(C#C[Si](C)(C)C)c(=O)[nH]c1=O	–	5.64	–	25.3	8.85	45.8	28.3	22.8	25.5	32.4	2.41	12.7	2.79	20	14.4	7.93	12.8	16.8	–
CN(C)N=Nc1ccc(S(N)(=O)=O)cc1	> 100	> 100	> 100	> 100	> 100	> 100	> 100	> 100	> 100	> 100	–	–	–	–	–	–	–	–	–
Oc1[nH]c2ccccc2c1C=Nc1ccc(-n2cncn2)cc1	–	> 25	–	> 22.1	> 25	> 25	> 25	> 25	> 25	> 25	> 23.1	8.34	> 24.1	> 25	> 25	> 17.1	> 21.6	> 17.7	–
CCN(CC)C(=S)SS(C)(=O)=O	–	31	–	31.3	–	98	33.2	32.2	31.5	37.3	–	–	–	–	–	–	–	–	43.7
N#Cc1c(N)nc(N2CCOCC2)c(C#N)c1-c1c(Cl)cccc1Cl	–	17.4	–	73.8	> 100	43.2	93.2	> 100	18.5	44.1	3.33	15.2	11.3	4.4	6.31	20.9	3.89	7.79	–
